Results: patent EP0055702B1, “Antithrombotic treatment” (priority 1980, dated 1982)
Values joined by “and” are separate entries in the source; they are usually repeats but may differ in a detail not shown here. Equal values may be shown once. Read-outs that look alike come from different tables or passages of the source.

Tests used:
F X = target: T1, F X (Homo sapiens, UniProt P00742); experiment: Factor X assay, Example 4; assay type: biochemical; conditions: for F X: Control 78
T1 construct: from tissue; host or cells: human plasma
T1 sequence (P00742 41-488): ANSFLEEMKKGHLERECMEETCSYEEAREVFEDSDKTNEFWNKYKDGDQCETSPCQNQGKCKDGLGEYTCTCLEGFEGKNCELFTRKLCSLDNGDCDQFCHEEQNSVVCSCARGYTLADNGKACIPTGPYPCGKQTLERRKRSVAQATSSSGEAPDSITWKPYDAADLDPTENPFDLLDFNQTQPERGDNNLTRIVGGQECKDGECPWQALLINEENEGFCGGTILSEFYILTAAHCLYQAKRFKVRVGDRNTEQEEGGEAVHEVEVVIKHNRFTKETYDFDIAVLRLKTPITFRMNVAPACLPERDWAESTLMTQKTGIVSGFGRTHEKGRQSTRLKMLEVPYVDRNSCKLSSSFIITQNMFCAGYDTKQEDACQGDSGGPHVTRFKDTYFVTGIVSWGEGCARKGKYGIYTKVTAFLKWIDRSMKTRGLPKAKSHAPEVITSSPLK
From the text: (§1) The evaluation procedure used is that described in "Human Blood Coagulation, Haemostasis and Thrombosis", edited by Rosemary Biggs, published by Blackwell Scientific Publications, Oxford, England (2nd Edition), pages 670-705, 1976. […]

[1] = tested on: platelet thrombus formation on damaged aortic wall; experiment: Indium-111 platelet labelling technique in rabbits; assay type: in vivo; conditions: intravenous 72.80 mg/kg
Method: In medicine, arterial thrombosis is diagnosable, for example, by clinical manifestations, by arteriography and, recently, by an indium 111 platelet labelling technique (see, for example, the article entitled "Differential Effects of Two Doses of Aspirin on Platelet-Vessel Wall Interaction In Vivo" by K. K. Wu et al being published in the Journal of Clinical Investigation, August, 1981).
Sodium bisulphite was evaluated as an anti-thrombotic agent in vivo using the indium-111 platelet labelling technique in rabbits (see the Wu et al article above cited). The material was administered by intravenous injection (72.80 milligrams per kilogram of animal body weight).

Factor V = target: T2, Factor V (Homo sapiens, UniProt P12259); experiment: Factor V assay, Example 4; assay type: biochemical; conditions: Control 75
T2 construct: from tissue; host or cells: human plasma
T2 sequence (P12259 29-2224): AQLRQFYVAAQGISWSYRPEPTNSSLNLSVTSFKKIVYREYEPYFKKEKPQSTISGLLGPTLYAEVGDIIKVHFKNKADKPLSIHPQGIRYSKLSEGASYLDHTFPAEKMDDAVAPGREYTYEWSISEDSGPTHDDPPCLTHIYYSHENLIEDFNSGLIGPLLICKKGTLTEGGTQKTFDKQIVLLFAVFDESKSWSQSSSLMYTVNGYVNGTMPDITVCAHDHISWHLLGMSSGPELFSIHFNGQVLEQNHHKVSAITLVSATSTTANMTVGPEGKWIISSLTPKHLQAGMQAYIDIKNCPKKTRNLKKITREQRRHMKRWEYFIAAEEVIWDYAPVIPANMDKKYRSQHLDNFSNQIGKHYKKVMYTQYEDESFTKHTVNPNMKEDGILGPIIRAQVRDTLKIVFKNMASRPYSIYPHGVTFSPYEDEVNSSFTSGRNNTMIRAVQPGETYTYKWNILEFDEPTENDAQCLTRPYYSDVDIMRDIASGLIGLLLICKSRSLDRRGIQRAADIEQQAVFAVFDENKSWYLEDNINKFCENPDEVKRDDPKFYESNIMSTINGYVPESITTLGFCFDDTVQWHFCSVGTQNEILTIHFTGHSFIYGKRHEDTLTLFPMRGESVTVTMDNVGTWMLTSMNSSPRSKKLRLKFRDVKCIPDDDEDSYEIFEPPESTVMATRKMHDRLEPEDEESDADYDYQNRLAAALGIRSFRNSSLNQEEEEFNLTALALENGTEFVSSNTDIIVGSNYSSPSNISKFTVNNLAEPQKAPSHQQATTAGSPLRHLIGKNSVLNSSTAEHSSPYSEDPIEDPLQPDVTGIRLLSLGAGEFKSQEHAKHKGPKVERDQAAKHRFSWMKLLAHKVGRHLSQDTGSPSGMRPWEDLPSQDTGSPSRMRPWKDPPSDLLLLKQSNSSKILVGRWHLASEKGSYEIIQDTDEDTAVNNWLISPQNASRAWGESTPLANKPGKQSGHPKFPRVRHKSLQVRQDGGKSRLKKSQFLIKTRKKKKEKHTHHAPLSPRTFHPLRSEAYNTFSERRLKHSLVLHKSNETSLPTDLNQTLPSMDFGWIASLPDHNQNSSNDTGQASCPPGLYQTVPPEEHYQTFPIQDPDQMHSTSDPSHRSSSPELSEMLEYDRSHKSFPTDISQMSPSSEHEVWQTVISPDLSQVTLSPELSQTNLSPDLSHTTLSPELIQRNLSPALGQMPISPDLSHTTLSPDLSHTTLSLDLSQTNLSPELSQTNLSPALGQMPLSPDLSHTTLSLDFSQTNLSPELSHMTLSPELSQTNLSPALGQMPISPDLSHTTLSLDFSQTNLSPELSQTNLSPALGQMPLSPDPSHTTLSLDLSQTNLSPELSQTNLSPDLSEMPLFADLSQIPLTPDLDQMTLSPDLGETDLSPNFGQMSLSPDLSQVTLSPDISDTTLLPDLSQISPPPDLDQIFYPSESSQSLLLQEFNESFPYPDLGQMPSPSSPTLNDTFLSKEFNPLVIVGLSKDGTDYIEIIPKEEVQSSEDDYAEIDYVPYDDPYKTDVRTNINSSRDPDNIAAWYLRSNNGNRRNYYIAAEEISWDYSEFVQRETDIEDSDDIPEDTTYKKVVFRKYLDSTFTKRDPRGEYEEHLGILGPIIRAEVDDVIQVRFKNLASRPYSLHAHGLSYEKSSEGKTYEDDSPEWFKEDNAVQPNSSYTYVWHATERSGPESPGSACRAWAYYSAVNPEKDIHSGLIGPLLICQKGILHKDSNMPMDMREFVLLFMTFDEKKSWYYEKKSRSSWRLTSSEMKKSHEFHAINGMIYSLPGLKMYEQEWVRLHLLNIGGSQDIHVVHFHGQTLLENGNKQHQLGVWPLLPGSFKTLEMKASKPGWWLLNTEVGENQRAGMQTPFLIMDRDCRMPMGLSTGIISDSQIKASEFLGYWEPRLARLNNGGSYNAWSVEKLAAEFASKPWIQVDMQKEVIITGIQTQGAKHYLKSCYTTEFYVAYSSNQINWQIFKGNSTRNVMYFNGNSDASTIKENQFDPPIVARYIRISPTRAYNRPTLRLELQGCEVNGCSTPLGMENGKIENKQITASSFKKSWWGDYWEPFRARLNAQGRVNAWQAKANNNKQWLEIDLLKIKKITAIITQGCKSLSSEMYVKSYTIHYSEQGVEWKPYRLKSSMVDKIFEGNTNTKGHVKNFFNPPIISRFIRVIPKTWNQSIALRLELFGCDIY
From the text: as §1

F XII = target: T3, F XII (Homo sapiens, UniProt P00748); experiment: Factor XII assay, Example 4; assay type: biochemical; conditions: for F XII: Control 86
T3 construct: from tissue; host or cells: human plasma
T3 sequence (P00748 20-615): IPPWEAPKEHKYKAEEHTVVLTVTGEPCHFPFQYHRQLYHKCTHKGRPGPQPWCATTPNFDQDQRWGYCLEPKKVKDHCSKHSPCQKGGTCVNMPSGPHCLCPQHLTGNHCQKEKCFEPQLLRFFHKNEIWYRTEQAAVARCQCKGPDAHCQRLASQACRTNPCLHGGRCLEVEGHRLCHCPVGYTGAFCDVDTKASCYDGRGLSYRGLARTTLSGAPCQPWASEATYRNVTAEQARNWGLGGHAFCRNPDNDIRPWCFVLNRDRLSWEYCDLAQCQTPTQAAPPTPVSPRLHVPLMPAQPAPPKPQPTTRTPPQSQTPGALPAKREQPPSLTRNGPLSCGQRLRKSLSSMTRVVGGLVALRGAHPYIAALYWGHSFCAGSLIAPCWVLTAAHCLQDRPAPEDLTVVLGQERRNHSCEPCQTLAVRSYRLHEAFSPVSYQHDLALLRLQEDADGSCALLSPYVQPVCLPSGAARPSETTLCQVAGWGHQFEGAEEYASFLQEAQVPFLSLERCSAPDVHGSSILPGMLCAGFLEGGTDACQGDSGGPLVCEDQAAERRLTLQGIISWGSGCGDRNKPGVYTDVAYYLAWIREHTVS
From the text: as §1

F VII = target: T4, F VII (Homo sapiens, UniProt P08709); experiment: Factor VII assay, Example 4; assay type: biochemical; conditions: for F VII: Control 73
T4 construct: from tissue; host or cells: human plasma
T4 sequence (P08709 61-466): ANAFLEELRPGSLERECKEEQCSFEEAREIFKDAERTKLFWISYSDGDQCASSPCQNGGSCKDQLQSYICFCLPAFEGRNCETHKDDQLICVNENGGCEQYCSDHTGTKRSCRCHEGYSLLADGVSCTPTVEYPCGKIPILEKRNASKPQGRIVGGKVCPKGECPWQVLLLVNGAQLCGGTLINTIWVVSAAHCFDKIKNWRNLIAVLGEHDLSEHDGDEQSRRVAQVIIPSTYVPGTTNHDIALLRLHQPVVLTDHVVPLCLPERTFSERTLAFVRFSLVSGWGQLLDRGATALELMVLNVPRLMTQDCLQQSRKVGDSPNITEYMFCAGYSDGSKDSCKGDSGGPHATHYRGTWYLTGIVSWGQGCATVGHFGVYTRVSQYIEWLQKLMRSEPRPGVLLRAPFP
From the text: as §1

[2] = tested on: platelet aggregation induced by adenosine diphosphate (ADP); conditions: rabbit blood, Kikugawa, cited from earlier work
patients = experiment: Human use, case histories; assay type: in vivo
From the text: To evaluate the effect of sodium bisulphite in human use (this agent being known to be safe for human consumption), certain patients received this agent. The case history and observations are summarized individually below.
In each case, each patient was provided with a bottle of Solution D, unless otherwise noted, and was instructed to dose himself (or herself, as the case may be) from the bottle so provided at the rate of seven drops to be taken orally with each of his (her) three daily meals. When the contents of one such bottle were thus gradually consumed by an individual patient, another was provided.

[3] = Sodium bisulphite 0.01 mg/ml, solution D
[4] = Sodium bisulphite 0.05 mg/ml, solution D
[5] = Sodium bisulphite 0.1 mg/ml, solution D
[6] = Sodium bisulphite 0.5 mg/ml, solution D
[7] = Sodium bisulphite 1.0 mg/ml, solution D
[8] = Sodium bisulphite 5.0 mg/ml, solution D
[9] = chemical grade sodium bisulphite 0.01 mg/ml
[10] = chemical grade sodium bisulphite 0.05 mg/ml
[11] = chemical grade sodium bisulphite 0.1 mg/ml
[12] = chemical grade sodium bisulphite 0.5 mg/ml
[13] = chemical grade sodium bisulphite 1.0 mg/ml
[14] = chemical grade sodium bisulphite 5.0 mg/ml

Question: What does the source list for Sodium bisulphite?
Answer: effect on Factor X (F X; 0.5 mg per ml, human plasma): significant inhibitory effect; F X (F X; [3]): 73%; F X (F X; [4]): 68%; F X (F X; [5]): 66%; F X (F X; [6]): 31%; F X (F X; [7]): 11%; F X (F X; [8]): 3%; F X (F X; [9]): 80; F X (F X; [10]): 69; F X (F X; [11]): 66; F X (F X; [12]): 22; F X (F X; [13]): 6; F X (F X; [14]): 4; Platelet accumulation II. at normal vessel wall cpm/gm ([1]; rabbits A, B, per gram dry weight of tissue, Control 72,140± 39,040): 98,611 cpm/gm and 83,066 cpm/gm; Platelet accumulation I. at damaged vessel wall cpm/gm ([1]; rabbits A, B, per gram dry weight of tissue, Control 1,167,820± 21,310): 133,986 cpm/gm and 146,630 cpm/gm; Platelet accumulation II. at normal vessel wall % ([1]; rabbits A, B, percentage of injected radioactivity per gram dry weight, Control 0.03± 0.02): 0.08%; Platelet accumulation I. at damaged vessel wall % ([1]; rabbits A, B, percentage of injected radioactivity per gram dry weight, Control 0.44± 0.08, 72.8 mg/kg): 0.11% and 0.15%; reduction of accumulation of platelet thrombus at the damaged vessel wall ([1]; rabbits): 70%; Factor V (Factor V; [3]): 74%; Factor V (Factor V; [4]): 72%; Factor V (Factor V; [5]): 80%; Factor V (Factor V; [6]): 70%; Factor V (Factor V; [7]): 60%; Factor V (Factor V; [8]): 54%; Factor V (Factor V; [9]): 70; Factor V (Factor V; [10]): 68; Factor V (Factor V; [11]): 68; Factor V (Factor V; [12]): 64; Factor V (Factor V; [13]): 66; Factor V (Factor V; [14]): 60; effect on Factor XII (F XII; 0.5 mg per ml, human plasma): significant inhibitory effect; F XII (F XII; [3]): 94%; F XII (F XII; [4]): 87%; F XII (F XII; [5]): 79%; F XII (F XII; [6]): 17%; F XII (F XII; [7]): 3%; F XII (F XII; [8]): <1%; F XII (F XII; [9]): 104; F XII (F XII; [10]): 102; F XII (F XII; [11]): 75; F XII (F XII; [12]): 25; F XII (F XII; [13]): 9; F XII (F XII; [14]): <1; effect on Factor VII (F VII; 0.5 mg per ml, human plasma): significant inhibitory effect; F VII (F VII; [3]): 67%; F VII (F VII; [4]): 57%; F VII (F VII; [5]): 51%; F VII (F VII; [6]): 23%; F VII (F VII; [7]): 8%; F VII (F VII; [8]): 1%; F VII (F VII; [9]): 62; F VII (F VII; [10]): 63; F VII (F VII; [11]): 53; F VII (F VII; [12]): 17; F VII (F VII; [13]): 7; F VII (F VII; [14]): 2; inhibition of platelet aggregation induced by ADP ([2]; 1 mM): 9%; inhibition of platelet aggregation induced by ADP ([2]; 5 mM): 66%; inhibition of platelet aggregation induced by ADP ([2]; 10 mM): 69%; Case IV: blood cholesterol value (patients; after about 5 years, before between 200 and 220 mg %): about 144 mg %; Case IV: hypertension, arthritis, arrhythmia, haemorrhoids, dyspepsia, cyanotic fingers and toes, malaise (except diabetes) (patients; person, Solutions A, B, C or D orally, within 2-3 months): improved
